From ChEMBL document CHEMBL5034014, “Melanocortin 1 Receptor Agonists Based on a Bivalent, Bicyclic Peptide Framework” (J Med Chem, 2021) come the findings set out here.

The term Ki denotes a measure of affinity in units of concentration, obtained from inhibition or displacement. A high value points to a looser hold on the target. The EC50 is the midpoint of the concentration-response curve. One may read the IC50 as the concentration at which inhibition is half-maximal.

Molecules are shown by their SMILES. Bridge positions count the residues as written; N and C are the ends. Square brackets hold non-standard residues; d marks the D form. Peptide text beside a SMILES is read from it. NMeW = CN[C@@H](Cc1c[nH]c2ccccc12)C(=O)O

The target in test [1] is T1, Melanocortin receptor 4 (Homo sapiens, UniProt P32245). Description: Displacement of [125I]-NDP-alpha-MSH from human MC4R expressed in HEK2936E cell membrane measured after 16-23 hrs by 1450 microbeta trilux scintillation proximity assay. In kind it is cell membranes. In general terms: In a radioligand displacement assay an active substance lowers the binding of a labelled ligand.

In test [2] the target is T1, Melanocortin receptor 4. Description: Agonist activity at human melanocortin receptor 4 expressed in human T-REx-293 cells using low doxycycline assessed as stimulation of intracellular cAMP accumulation incubated for 45 mins by LANCE cAMP assay. In kind it is functional, cell-based. (In general: cAMP levels reflect the balance of adenylyl cyclase and phosphodiesterase activity.)

The target in test [3] is T1, Melanocortin receptor 4. Description: Agonist activity at human melanocortin receptor 4 expressed in human T-REx-293 cells using high doxycycline assessed as stimulation of intracellular cAMP accumulation incubated for 45 mins by LANCE cAMP assay. In kind it is functional.
Test [4] concerns the target T2, Melanocortin receptor 3 (Homo sapiens, UniProt P41968). Description: Displacement of [125I]-NDP-alpha-MSH from human MC3R expressed in HEK2936E cell membrane measured after 16-23 hrs by 1450 microbeta trilux scintillation proximity assay. Format: cell membranes.
For test [5], the target named is T3, Melanocyte-stimulating hormone receptor (Homo sapiens, UniProt Q01726). The test is described as follows: Agonist activity at human melanocortin receptor 1 expressed in human T-Rex-293 cells assessed as stimulation of intracellular cAMP accumulation incubated for 45 mins by LANCE cAMP assay. In kind it is functional, cell-based.
Test [6] has as its target T2, Melanocortin receptor 3. The test is described as follows: Agonist activity at human melanocortin receptor 3 expressed in human T-REx-293 cells assessed as stimulation of intracellular cAMP accumulation incubated for 45 mins by LANCE cAMP assay. In kind it is functional, cell-based.
For test [7], the target named is T3, Melanocyte-stimulating hormone receptor. Description: Displacement of [125I]-NDP-alpha-MSH from human MC1R expressed in HEK2936E cell membrane measured after 16-23 hrs by 1450 microbeta trilux scintillation proximity assay. In kind it is cell membranes.
Test [8] concerns the target Melanocortin receptor 5 (Homo sapiens, UniProt P33032). The test is described as follows: Displacement of [125I]-NDP-alpha-MSH from human MC5R expressed in HEK2936E cell membrane measured after 16-23 hrs by 1450 microbeta trilux scintillation proximity assay. In kind it is cell membranes.

T2 sequence (P41968 whole entry): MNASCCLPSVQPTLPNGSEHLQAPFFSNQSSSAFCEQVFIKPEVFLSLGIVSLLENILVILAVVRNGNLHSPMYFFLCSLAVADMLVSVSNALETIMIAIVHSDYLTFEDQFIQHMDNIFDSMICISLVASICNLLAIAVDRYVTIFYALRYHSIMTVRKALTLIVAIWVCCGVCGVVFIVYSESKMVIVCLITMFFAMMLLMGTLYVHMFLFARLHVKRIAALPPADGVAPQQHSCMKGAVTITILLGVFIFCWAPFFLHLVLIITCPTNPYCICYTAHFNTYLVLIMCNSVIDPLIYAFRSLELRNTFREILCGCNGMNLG
Sequence of Melanocortin receptor 5 (P33032 whole entry): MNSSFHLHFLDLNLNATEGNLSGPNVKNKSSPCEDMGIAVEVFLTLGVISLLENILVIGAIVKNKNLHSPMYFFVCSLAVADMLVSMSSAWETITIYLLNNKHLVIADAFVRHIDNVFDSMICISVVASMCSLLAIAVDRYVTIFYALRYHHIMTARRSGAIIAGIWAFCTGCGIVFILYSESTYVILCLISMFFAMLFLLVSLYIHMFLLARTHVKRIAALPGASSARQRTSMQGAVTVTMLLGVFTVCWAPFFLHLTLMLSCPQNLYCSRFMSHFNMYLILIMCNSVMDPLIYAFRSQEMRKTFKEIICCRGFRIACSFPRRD
T3 sequence (Q01726 whole entry): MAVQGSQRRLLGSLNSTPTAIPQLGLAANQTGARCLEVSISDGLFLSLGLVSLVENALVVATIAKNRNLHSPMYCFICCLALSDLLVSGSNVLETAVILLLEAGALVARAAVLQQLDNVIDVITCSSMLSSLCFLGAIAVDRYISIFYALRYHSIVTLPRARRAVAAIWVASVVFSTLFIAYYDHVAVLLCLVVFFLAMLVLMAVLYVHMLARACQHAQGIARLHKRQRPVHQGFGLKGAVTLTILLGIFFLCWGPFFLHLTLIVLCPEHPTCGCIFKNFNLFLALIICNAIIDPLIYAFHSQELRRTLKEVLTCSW
T1 sequence (P32245 whole entry): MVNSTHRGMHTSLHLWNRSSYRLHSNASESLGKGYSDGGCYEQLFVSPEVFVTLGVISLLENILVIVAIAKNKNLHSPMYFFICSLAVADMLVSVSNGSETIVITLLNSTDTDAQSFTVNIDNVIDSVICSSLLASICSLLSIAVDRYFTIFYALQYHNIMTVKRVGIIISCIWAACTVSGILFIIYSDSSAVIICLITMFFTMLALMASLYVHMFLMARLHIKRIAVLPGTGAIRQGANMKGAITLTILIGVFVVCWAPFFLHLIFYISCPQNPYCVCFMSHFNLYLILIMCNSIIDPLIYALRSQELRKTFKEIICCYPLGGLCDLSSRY

Regarding `CC[C@H](C)[C@@H]1NC(=O)[C@@H]2CCCN2C(=O)[C@H](Cc2c[nH]c3ccccc23)NC(=O)[C@H](CCCNC(=N)N)N(C)C(=O)[C@@H](Cc2ccccc2)NC(=O)[C@H](Cc2c[nH]cn2)NC(=O)[C@H]([C@@H](C)O)NC(=O)[C@@H]2CSSC[C@H](NC1=O)C(=O)N[C@@H](Cc1c[nH]cn1)C(=O)N[C@H](Cc1ccccc1)C(=O)N[C@@H](C)C(=O)N[C@@H](Cc1c[nH]c3ccccc13)C(=O)N[C@@H](CCCNC(=N)N)C(=O)N2`, the Ki in test [1] was 91.2 nM; in test [4], 1150 nM; in test [7], 15.1 nM. The EC50 in test [2] was 44.7 nM; in test [3], 2.19 nM; in test [5], 2.24 nM; in test [6] it was 56.2 nM. In test [8], this molecule gave an IC50 of 589 nM.

Turning to `CC[C@H](C)[C@@H]1NC(=O)[C@@H]2CCCN2C(=O)[C@H](Cc2c[nH]c3ccccc23)NC(=O)[C@H](CCCNC(=N)N)N(C)C(=O)[C@@H](Cc2ccccc2)NC(=O)[C@H](Cc2c[nH]cn2)NC(=O)[C@H]([C@@H](C)O)NC(=O)[C@@H]2CSSC[C@H](NC1=O)C(=O)N[C@@H](Cc1c[nH]cn1)C(=O)N[C@H](Cc1ccccc1)C(=O)N[C@@H](CCC(=O)O)C(=O)N[C@@H](Cc1c[nH]c3ccccc13)C(=O)N[C@@H](CCCNC(=N)N)C(=O)N2`, the Ki is 309 nM in test [1], 5010 nM in test [4] and 41.7 nM in test [7]. For the same molecule, the 50% effective concentration (EC50) in test [2] is 105 nM; in test [3], 3.89 nM; in test [5], 3.63 nM; in test [6] it was 95.5 nM. Also, the IC50 in test [8] is 2690 nM.

For the molecule `CN1C(=O)[C@@H](Cc2ccccc2)NC(=O)[C@H](Cc2c[nH]cn2)NC(=O)CNC(=O)[C@@H]2CSSC[C@H](NC(=O)[C@H](CCCNC(=N)N)NC(=O)[C@@H](CC(=O)O)NC(=O)[C@H](Cc3c[nH]c4ccccc34)NC(=O)[C@@H]1CCCNC(=N)N)C(=O)N[C@@H](Cc1c[nH]cn1)C(=O)N[C@H](Cc1ccccc1)C(=O)N(C)[C@@H](CCCNC(=N)N)C(=O)N(C)[C@@H](Cc1c[nH]c3ccccc13)C(=O)N[C@@H](CCCNC(=N)N)C(=O)N2`, the Ki in test [1] was 158 nM; in test [4], 148 nM; in test [7] it was 4.9 nM. Besides, the EC50 in test [2] was 490 nM; in test [3], 10.5 nM; in test [5] it was 0.813 nM; in test [6], 24 nM. In test [8], the IC50 is 1510 nM.

With `CC[C@H](C)[C@@H]1NC(=O)[C@@H]2CCCN2C(=O)[C@H](Cc2c[nH]c3ccccc23)NC(=O)[C@H](CCCNC(=N)N)N(C)C(=O)[C@@H](Cc2ccccc2)NC(=O)[C@H](Cc2c[nH]cn2)NC(=O)[C@H](CCC(=O)O)NC(=O)[C@@H]2CSSC[C@H](NC1=O)C(=O)N[C@@H](Cc1c[nH]cn1)C(=O)N[C@H](Cc1ccccc1)C(=O)N(C)[C@@H](CCCNC(=N)N)C(=O)N(C)[C@@H](Cc1c[nH]c3ccccc13)C(=O)N[C@@H](CCCNC(=N)N)C(=O)N2`, the inhibitory constant (Ki) in test [1] was 64.6 nM; in test [4], 105 nM; in test [7], 0.148 nM. For the same molecule, the EC50 in test [2] is 45.7 nM; in test [3], 2.75 nM; in test [5], 0.0832 nM; in test [6] it was 3.55 nM. Moreover, the IC50 in test [8] is 380 nM.

Take `CC[C@H](C)[C@@H]1NC(=O)[C@@H]2CCCN2C(=O)[C@H](Cc2c[nH]c3ccccc23)NC(=O)[C@H](CCC(=O)O)NC(=O)[C@@H](Cc2ccccc2)NC(=O)[C@H](Cc2c[nH]cn2)NC(=O)[C@H]([C@@H](C)O)NC(=O)[C@@H]2CSSC[C@H](NC1=O)C(=O)N[C@@H](Cc1c[nH]cn1)C(=O)N[C@H](Cc1ccccc1)C(=O)N(C)[C@@H](CCCNC(=N)N)C(=O)N(C)[C@@H](Cc1c[nH]c3ccccc13)C(=O)N[C@@H](CCCNC(=N)N)C(=O)N2`: the Ki in test [1] was 589 nM; in test [4], 1740 nM; in test [7], 1.29 nM. For the same molecule, the EC50 was 398 nM in test [2], 22.9 nM in test [3], 0.141 nM in test [5] and 72.4 nM in test [6]. The molecule further showed an IC50 in test [8] of 3090 nM.

On to `CC[C@H](C)[C@@H]1NC(=O)[C@@H]2CCCN2C(=O)[C@H](Cc2c[nH]c3ccccc23)NC(=O)[C@H](CCCNC(=N)N)N(C)C(=O)[C@@H](Cc2ccccc2)NC(=O)[C@H](Cc2c[nH]cn2)NC(=O)[C@H]([C@@H](C)O)NC(=O)[C@@H](NC(C)=O)CSSC[C@@H](C(N)=O)NC1=O`, for which the Ki in test [1] is 347 nM; in test [4], 3980 nM; in test [7], 195 nM. In addition, the EC50 was 60.3 nM in test [2], 2.57 nM in test [3], 8.71 nM in test [5] and 39.8 nM in test [6]. In test [8], the IC50 is 11200 nM.

With `CC[C@H](C)[C@@H]1NC(=O)[C@@H]2CCCN2C(=O)[C@H](Cc2c[nH]c3ccccc23)N(C)C(=O)[C@H](CCCNC(=N)N)NC(=O)[C@@H](Cc2ccccc2)NC(=O)[C@H](Cc2cnc[nH]2)NC(=O)[C@H]([C@@H](C)O)NC(=O)[C@@H]2CSSC[C@H](NC1=O)C(=O)N[C@@H](Cc1ccccc1)C(=O)N1CCC[C@H]1C(=O)N[C@@H](CC(=O)O)C(=O)NCC(=O)N[C@@H](CCCNC(=N)N)C(=O)N2` (cyclo(CFPDGRCTH[dF]R[NMeW]PI); disulfide 1-7), the Ki in test [1] is 617 nM; in test [4], more than 1000 nM; in test [7], 339 nM. In addition, the EC50 in test [2] is 46.8 nM; in test [3] it was 3.09 nM; in test [5], 64.6 nM; in test [6] it was 282 nM. For the same molecule, the IC50 in test [8] was 1000 nM.

As for `CC[C@H](C)[C@@H]1NC(=O)[C@@H]2CCCN2C(=O)[C@H](Cc2c[nH]c3ccccc23)NC(=O)[C@H](CCCNC(=N)N)N(C)C(=O)[C@@H](Cc2ccccc2)NC(=O)[C@H](Cc2c[nH]cn2)NC(=O)[C@H]([C@@H](C)O)NC(=O)[C@@H]2CSSC[C@H](NC1=O)C(=O)N[C@@H](Cc1c[nH]cn1)C(=O)N[C@H](Cc1ccccc1)C(=O)N[C@@H](CCCNC(=N)N)C(=O)N[C@@H](Cc1c[nH]c3ccccc13)C(=O)N[C@@H](C)C(=O)N2`, the figures for the inhibition constant (Ki) in test [1], in test [4] and in test [7] were 13.5 nM, 85.1 nM and 0.912 nM, respectively. The EC50 in test [2] was 2.04 nM; in test [3], 0.178 nM; in test [5], 0.0562 nM; in test [6], 1.45 nM. In test [8], this molecule had an IC50 of 200 nM.

With `CC[C@H](C)[C@@H]1NC(=O)[C@H](C)NC(=O)[C@H](Cc2c[nH]c3ccccc23)NC(=O)[C@H](CCCNC(=N)N)N(C)C(=O)[C@@H](Cc2ccccc2)NC(=O)[C@H](Cc2c[nH]cn2)NC(=O)[C@H]([C@@H](C)O)NC(=O)[C@@H]2CSSC[C@H](NC1=O)C(=O)N[C@@H](Cc1c[nH]cn1)C(=O)N[C@H](Cc1ccccc1)C(=O)N[C@@H](CCCNC(=N)N)C(=O)N[C@@H](Cc1c[nH]c3ccccc13)C(=O)N[C@@H](C)C(=O)N2`, the figures for the inhibitory constant (Ki) in test [1], in test [4] and in test [7] were 25.7 nM, 107 nM and 1.41 nM, respectively. The EC50 in test [2] was 1.23 nM; in test [3] it was 0.132 nM; in test [5], 0.0912 nM; in test [6], 1.15 nM. Besides, the IC50 in test [8] is 170 nM.
